{"source": "paper PMC4855506", "about": "(Journal of molecular and cellular cardiology, 2011)", "experiment": "coupled proteolysis-cGMP elevation bioassay with protease inhibitors", "format": "in vitro ADME, human", "key": {"[1]": {"details": "Fig. 2B, 30 min, 37 °C, human kidney membranes, 293-GC-A cells, n=4"}}}
{"substance": "B-type natriuretic peptide [BNP]", "values": [{"measurement": "effect of leupeptin on degradation", "setting": "[1]", "result": "completely blocked the degradation"}, {"measurement": "effect of phosphoramidon on degradation", "setting": "[1]", "result": "failed to preserve the activity"}, {"measurement": "effect of boiling the membranes before peptide exposure", "setting": "Fig. 2B, 30 min, 37 °C, 293-GC-A cells, n=4", "result": "blocked inactivation"}]}
{"substance": "C-type natriuretic peptide [CNP]", "values": [{"measurement": "effect of boiling the membranes prior to peptide exposure", "setting": "Fig. 2A, 30 min, 37 °C, boiled human kidney membranes, n=8", "result": "abolished membrane-dependent inactivation"}, {"measurement": "effect of actinonin together with phosphoramidon", "setting": "Fig. 2A, 30 min, 37 °C, human kidney membranes, n=8", "result": "did not further increase activity above that seen with phosphoramidon alone"}, {"measurement": "activity loss blocked by phosphoramidon", "setting": "Fig. 2A, NEP inhibitor phosphoramidon, 30 min, 37 °C, human kidney membranes, n=8", "result": "about 40%"}, {"measurement": "effect of actinonin alone on inactivation", "setting": "Fig. 2A, meprin inhibitor actinonin, 30 min, 37 °C, human kidney membranes, n=8", "result": "did not block inactivation"}, {"measurement": "effect of leupeptin on inactivation", "setting": "Fig. 2A, serine-threonine-cysteine protease inhibitor leupeptin, 30 min, 37 °C, human kidney membranes, n=8", "result": "did not statistically increase the bioactivity"}, {"measurement": "increase of bioactivity on inhibition of NEP in kidney membranes", "setting": "phosphoramidon, human kidney membranes, 30 min, 37 °C (Fig. 2A)", "result": 8, "unit": "fold"}]}
{"substance": "Dendroaspis natriuretic peptide [DNP]", "values": [{"measurement": "activity in the presence of phosphoramidon", "setting": "Fig. 2C, 120 min, 37 °C, human kidney membranes, human GC-A read-out, n=4", "result": "significantly less than control values"}]}
